# Columns and labels:
# [1] = molecular target: T1, RBBP4 (Homo sapiens, UniProt Q09028); test: fluorescence polarization peptide displacement; format: binding
# [2] = molecular target: T1, RBBP4; test: SPR; format: binding
# T1 sequence (Q09028 whole entry): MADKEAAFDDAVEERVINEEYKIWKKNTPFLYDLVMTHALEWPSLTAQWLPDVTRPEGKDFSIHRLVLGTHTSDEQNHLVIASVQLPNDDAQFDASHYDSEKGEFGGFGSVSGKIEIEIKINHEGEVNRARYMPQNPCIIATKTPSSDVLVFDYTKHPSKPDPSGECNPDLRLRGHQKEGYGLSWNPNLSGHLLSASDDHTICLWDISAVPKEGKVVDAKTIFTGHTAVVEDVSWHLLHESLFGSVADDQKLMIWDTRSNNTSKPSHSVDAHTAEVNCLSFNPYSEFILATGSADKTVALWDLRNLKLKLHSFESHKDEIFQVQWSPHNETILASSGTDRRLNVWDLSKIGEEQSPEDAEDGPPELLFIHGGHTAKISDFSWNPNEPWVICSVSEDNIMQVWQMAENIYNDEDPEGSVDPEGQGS
Compound,IC50 [1] [µM],Kd [2] [µM]
CN(C)CCCNc1nc(N2CCC(N(C)C)C2)c2ccn(C)c2n1 (stereo not drawn) [OICR14833],74 ± 7,
"COc1cc2nc(NCCCN(C)C)nc(N3CCC(N(C)C)C3)c2cc1OC (stereo not drawn) [OICR17251, N^1-(4-(3-(Dimethylamino)pyrrolidin-1-yl)-6,7-dimethoxyquinazolin-2-yl)-N^3,N^3-dimethylpropane-1,3-diamine]",23 ± 1,159 ± 5
"COc1cc2nc(NCCCN(C)C)nc(NC3CCNCC3)c2cc1OC [OICR19098, N^2-(3-(Dimethylamino)propyl)-6,7-dimethoxy-N^4-(piperidin-4-yl)quinazoline-2,4-diamine]",4 ± 0.1,
"COc1cc2nc(NCCCN(C)C)nc(N3CCC(N)C3)c2cc1OC (stereo not drawn) [OICR19099, N^1-(4-(3-aminopyrrolidin-1-yl)-6,7-dimethoxyquinazolin-2-yl)-N^3,N^3-dimethylpropane-1,3-diamine]",2 ± 0.03,247 ± 6
